According to US7074789B2, “Kinase inhibitors” (Amgen Inc., priority 1999, dated 2006):
Where two headings read alike, the source gives them in different places.

Legend:
Assay type in all cases: biochemical
Kdr = biological target: T1, Kdr (Homo sapiens, UniProt P35968); assay: Kinase inhibition assay (33P transfer), Kdr; conditions: read-out: KDR-1
T1 construct: Kinases are expressed as either kinase domains or full length constructs; made in house
Description: (§1) The inhibitor compounds described herein are screened in the following manner. Kinases suitable for use in the following protocol to determine kinase activity of the compounds described herein include, -but are not limited to: Lck, Lyn, Src, Fyn, Syk, Zap-70, Itk, Tec, Btk, EGFR, ErbB2, Kdr, Flt-1, Flt-3, Tek, c-Met, InsR, and AKT.
(§2) Kinases are expressed as either kinase domains or full length constructs fused to glutathione S-transferase (GST) or polyHistidine tagged fusion proteins in either E. colior Baculovirus-High Five expression systems. […] In some instances, kinases are co-expressed or mixed with purified or partially purified regulatory polypeptides prior to measurement of activity.
(§3) Briefly, The transfer of ^33PO4 from ATP to the synthetic substrates poly(Glu, Tyr) 4:1 or poly(Arg, Ser) 3:1 attached to the bioactive surface of microtiter plates serves as the basis to evaluate enzyme activity. After an incubation period, the amount of phosphate transferred is measured by first washing the plate with 0.5% phosphoric acid, adding liquid scintillant, and then counting in a liquid scintillation detector.

c-Met = biological target: T2, c-Met (Homo sapiens, UniProt P08581); assay: Kinase inhibition assay (33P transfer), c-Met; conditions: Table 2, kinase inhibition class; read-out: Met-1
T2 construct: Kinases are expressed as either kinase domains or full length constructs; made in house
Description: as §1
(§4) Kinases are expressed as either kinase domains or full length constructs fused to glutathione S-transferase (GST) or polyHistidine tagged fusion proteins in either E. colior Baculovirus-High Five expression systems. They are purified to near homogeneity by affinity chromatography essentially as previously described (Lehr et al., 1996; Gish et al., 1995). In some instances, kinases are co-expressed or mixed with purified or partially purified regulatory polypeptides prior to measurement of activity.
as §3, with “Kinase activity and inhibition are measured essentially by established protocols (Braunwalder et al., 1996). Briefly,” for “Briefly,”, “detector. The IC50 is determined by the concentration of compound that causes a 50% reduction in the amount of […] incorporated onto the substrate bound to the plate.” for “detector.”

AKT = biological target: T3, AKT (Homo sapiens, UniProt Q9Y243); assay: Kinase inhibition assay (33P transfer), AKT; conditions: Table 2, kinase inhibition class; read-out: AKT3-1
T3 construct: Kinases are expressed as either kinase domains or full length constructs; made in house
Description: as §1, §2, §3

Lck = biological target: T4, Lck (Homo sapiens, UniProt P06239); assay: Kinase inhibition assay (33P transfer), Lck; conditions: read-out: Lck-1
T4 construct: Kinases are expressed as either kinase domains or full length constructs; made in house
Description: as §1, §2, §3

EGFR = biological target: T5, EGFR (Homo sapiens, UniProt P00533); assay: Kinase inhibition assay (33P transfer), EGFR; conditions: Table 2, kinase inhibition class; read-out: EGFR-1
T5 construct: Kinases are expressed as either kinase domains or full length constructs; made in house
Description: as §1, §4
as §3, with “Kinase activity and inhibition are measured essentially by established protocols (Braunwalder et al., 1996). Briefly,” for “Briefly,”, “detector. The IC50 is determined by the concentration of compound that causes a 50% reduction in the amount of […] incorporated onto the substrate bound to the plate.” for “detector.”

Zap-70 = biological target: T6, Zap-70 (Homo sapiens, UniProt P43403); assay: Kinase inhibition assay (33P transfer), Zap-70; conditions: read-out: Zap-1
T6 construct: Kinases are expressed as either kinase domains or full length constructs; made in house
T6 sequence (P43403 1-619): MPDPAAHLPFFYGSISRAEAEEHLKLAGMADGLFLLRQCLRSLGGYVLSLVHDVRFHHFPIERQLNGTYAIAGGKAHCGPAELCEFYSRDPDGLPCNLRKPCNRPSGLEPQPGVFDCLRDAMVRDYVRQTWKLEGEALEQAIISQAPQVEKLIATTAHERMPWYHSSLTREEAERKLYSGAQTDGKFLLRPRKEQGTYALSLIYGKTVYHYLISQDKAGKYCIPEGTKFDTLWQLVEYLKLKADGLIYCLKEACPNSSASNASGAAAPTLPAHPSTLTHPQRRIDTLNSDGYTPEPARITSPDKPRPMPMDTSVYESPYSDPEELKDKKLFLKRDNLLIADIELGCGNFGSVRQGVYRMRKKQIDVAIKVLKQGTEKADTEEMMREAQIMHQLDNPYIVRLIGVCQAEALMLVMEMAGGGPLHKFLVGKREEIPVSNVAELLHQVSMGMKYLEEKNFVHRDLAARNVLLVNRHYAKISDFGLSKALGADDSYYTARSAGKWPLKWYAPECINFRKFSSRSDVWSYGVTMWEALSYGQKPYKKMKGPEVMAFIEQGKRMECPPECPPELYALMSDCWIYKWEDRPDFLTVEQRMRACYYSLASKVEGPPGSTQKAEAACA
Description: as §1, §2, §3

Itk = biological target: T7, Itk (Homo sapiens, UniProt Q08881); assay: Kinase inhibition assay (33P transfer), Itk; conditions: read-out: Itk-1
T7 construct: Kinases are expressed as either kinase domains or full length constructs; made in house
T7 sequence (Q08881 1-620): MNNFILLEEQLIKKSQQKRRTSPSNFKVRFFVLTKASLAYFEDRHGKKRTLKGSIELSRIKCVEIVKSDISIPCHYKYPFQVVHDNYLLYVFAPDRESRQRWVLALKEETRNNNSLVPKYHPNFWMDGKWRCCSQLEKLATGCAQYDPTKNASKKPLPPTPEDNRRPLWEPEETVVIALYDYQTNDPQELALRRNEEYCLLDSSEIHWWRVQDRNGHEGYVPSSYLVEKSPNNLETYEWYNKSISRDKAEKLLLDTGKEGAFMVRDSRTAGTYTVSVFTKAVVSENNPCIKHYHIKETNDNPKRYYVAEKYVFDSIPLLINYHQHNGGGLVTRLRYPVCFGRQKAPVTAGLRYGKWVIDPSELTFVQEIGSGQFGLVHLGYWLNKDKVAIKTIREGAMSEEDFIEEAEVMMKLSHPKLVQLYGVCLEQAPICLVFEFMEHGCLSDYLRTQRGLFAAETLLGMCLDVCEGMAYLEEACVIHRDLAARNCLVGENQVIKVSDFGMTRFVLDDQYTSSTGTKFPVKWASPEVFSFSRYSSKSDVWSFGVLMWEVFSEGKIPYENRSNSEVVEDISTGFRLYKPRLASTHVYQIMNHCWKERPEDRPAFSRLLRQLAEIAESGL
Description: as §1, §4
as §3, with “Kinase activity and inhibition are measured essentially by established protocols (Braunwalder et al., 1996). Briefly,” for “Briefly,”, “detector. The IC50 is determined by the concentration of compound that causes a 50% reduction in the amount of […] incorporated onto the substrate bound to the plate.” for “detector.”

T1 sequence (P35968 20-1356, species assumed): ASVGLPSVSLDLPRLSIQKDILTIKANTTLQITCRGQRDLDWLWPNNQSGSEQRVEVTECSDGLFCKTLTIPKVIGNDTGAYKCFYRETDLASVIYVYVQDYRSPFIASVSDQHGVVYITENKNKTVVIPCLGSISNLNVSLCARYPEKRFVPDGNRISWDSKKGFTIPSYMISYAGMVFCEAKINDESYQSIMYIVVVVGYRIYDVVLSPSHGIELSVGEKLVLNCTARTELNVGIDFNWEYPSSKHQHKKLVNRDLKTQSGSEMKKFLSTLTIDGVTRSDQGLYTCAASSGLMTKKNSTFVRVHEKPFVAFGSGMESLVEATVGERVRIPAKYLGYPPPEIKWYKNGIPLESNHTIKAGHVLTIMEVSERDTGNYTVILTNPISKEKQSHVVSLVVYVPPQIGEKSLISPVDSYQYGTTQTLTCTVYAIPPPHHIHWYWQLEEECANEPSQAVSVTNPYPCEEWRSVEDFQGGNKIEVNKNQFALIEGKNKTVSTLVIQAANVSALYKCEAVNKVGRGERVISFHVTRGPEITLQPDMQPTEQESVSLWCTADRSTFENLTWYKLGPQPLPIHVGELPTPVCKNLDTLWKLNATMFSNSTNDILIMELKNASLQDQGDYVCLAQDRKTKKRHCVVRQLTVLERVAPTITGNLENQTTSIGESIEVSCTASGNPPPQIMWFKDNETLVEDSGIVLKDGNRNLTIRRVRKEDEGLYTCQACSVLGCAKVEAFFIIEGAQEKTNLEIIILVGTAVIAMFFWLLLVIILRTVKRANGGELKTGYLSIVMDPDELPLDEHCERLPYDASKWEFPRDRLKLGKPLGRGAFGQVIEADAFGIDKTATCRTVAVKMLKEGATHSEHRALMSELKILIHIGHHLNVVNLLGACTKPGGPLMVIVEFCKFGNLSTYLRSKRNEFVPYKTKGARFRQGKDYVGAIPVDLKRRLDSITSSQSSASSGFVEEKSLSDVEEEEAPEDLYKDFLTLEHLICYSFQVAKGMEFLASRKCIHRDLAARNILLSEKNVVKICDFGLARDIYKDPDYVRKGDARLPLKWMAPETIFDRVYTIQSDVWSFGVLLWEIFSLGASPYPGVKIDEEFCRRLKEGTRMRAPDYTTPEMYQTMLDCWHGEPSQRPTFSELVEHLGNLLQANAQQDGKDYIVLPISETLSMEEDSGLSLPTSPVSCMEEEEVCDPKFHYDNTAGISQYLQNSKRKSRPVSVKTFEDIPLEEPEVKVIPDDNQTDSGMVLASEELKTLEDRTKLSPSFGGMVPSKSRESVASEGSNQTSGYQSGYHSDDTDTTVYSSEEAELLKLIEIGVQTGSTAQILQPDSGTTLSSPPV
T5 sequence (P00533 25-1210, species assumed): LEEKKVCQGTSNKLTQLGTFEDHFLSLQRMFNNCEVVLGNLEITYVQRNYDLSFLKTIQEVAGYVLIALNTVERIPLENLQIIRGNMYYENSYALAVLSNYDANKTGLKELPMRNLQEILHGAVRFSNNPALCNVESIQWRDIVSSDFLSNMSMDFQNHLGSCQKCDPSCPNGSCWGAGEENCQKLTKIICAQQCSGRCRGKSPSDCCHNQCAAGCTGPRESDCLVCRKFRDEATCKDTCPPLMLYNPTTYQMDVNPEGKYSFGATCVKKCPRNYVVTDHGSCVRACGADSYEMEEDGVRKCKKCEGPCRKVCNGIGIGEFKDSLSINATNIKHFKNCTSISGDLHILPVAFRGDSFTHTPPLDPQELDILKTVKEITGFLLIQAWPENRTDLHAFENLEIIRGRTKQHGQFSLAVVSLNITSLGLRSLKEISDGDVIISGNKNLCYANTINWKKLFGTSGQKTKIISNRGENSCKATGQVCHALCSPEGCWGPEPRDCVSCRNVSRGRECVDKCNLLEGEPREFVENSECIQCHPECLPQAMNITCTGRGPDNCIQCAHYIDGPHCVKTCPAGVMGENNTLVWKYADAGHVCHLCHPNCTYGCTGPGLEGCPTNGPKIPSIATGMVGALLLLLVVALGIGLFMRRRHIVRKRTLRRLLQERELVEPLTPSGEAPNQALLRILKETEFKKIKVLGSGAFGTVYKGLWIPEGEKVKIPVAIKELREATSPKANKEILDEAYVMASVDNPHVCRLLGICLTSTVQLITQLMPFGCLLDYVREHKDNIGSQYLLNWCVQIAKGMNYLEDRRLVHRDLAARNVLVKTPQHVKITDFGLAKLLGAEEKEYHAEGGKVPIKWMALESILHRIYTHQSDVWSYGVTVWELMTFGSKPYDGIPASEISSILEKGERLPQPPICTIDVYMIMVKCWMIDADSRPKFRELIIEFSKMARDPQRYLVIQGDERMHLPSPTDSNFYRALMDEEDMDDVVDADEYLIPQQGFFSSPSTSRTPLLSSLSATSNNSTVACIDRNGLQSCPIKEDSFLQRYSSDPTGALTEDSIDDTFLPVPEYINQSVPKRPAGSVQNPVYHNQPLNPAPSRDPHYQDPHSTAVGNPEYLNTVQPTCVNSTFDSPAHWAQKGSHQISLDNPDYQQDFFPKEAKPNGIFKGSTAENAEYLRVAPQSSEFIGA
T3 sequence (Q9Y243 whole entry, the tested form may be a part): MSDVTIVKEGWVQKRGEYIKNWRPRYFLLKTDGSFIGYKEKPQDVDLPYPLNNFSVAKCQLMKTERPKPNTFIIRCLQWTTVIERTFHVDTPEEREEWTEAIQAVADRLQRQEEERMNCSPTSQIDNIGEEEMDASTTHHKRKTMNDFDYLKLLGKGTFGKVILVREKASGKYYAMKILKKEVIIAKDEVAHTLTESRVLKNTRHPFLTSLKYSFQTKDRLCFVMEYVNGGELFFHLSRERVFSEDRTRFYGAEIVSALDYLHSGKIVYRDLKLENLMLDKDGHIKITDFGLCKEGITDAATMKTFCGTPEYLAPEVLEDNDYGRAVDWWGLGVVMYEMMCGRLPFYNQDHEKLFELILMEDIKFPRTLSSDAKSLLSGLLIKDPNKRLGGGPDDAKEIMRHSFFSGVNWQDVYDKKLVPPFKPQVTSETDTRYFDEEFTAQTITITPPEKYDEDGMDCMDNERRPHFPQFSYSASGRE
T4 sequence (P06239 whole entry, species assumed, the tested form may be a part): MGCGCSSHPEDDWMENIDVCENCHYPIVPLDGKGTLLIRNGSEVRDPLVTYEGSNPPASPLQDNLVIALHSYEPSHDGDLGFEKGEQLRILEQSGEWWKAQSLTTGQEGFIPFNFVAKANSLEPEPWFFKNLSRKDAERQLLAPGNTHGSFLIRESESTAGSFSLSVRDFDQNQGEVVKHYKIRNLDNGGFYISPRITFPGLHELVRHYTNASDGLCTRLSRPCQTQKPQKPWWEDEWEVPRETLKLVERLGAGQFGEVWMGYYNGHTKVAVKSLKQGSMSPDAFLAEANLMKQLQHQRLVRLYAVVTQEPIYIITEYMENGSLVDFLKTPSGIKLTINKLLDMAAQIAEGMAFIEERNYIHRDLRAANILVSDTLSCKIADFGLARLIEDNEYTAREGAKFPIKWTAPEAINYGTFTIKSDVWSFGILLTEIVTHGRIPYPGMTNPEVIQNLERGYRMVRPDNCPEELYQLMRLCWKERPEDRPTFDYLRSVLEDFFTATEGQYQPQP
T2 sequence (P08581 25-1390): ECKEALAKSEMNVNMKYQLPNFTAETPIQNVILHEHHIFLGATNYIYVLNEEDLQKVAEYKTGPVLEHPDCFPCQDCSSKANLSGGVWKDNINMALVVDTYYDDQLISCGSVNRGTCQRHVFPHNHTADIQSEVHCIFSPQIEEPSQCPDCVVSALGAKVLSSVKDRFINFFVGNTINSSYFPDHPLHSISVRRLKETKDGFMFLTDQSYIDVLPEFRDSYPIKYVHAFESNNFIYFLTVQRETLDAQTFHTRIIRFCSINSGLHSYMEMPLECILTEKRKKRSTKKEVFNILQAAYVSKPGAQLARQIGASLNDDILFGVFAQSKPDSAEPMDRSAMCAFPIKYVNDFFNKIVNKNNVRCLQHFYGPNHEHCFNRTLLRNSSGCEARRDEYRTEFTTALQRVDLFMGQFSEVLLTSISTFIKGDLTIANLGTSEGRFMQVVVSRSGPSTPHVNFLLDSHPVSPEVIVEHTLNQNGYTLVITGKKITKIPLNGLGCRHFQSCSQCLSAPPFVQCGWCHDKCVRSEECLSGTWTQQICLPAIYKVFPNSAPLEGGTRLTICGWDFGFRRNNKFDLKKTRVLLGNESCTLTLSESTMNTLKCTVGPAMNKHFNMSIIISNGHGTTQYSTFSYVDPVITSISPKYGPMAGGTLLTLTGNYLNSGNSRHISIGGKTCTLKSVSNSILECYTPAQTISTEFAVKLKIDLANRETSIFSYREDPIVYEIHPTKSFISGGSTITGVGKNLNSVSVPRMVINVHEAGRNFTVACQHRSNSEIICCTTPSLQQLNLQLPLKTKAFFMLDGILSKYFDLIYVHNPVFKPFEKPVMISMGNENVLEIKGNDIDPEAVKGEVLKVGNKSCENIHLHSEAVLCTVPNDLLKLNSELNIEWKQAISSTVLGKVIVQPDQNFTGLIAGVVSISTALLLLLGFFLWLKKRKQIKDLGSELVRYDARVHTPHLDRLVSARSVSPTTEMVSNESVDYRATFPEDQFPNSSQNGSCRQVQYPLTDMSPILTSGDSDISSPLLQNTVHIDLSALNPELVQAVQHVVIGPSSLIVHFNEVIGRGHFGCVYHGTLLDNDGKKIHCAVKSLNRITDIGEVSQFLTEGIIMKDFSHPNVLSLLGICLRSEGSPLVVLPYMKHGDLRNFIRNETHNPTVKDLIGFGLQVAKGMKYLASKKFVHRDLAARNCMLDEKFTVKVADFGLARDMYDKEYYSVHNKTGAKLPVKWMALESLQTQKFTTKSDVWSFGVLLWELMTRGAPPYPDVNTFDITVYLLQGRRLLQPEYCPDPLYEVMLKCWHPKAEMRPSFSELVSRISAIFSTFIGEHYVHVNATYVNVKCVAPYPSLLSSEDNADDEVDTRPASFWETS

SMILES	IC50 (Kdr; Table 3)	IC50 (c-Met)	IC50 (AKT)	IC50 (Lck; Table 3)	IC50 (EGFR)	IC50 (Zap-70; Table 3)	IC50 (Itk; Table 3)	IC50 (Kdr)	IC50 (Lck)	IC50 (Zap-70)	IC50 (Itk)
COc1cc(Nc2ncnc(-n3c(=O)sc4ccccc43)n2)cc(OC)c1OC [Compound 424]	5.83 to 8.51 µM	> 10.9 µM	> 10.9 µM	> 10.9 µM	> 10.9 µM	> 10.9 µM	> 10.9 µM				
COc1cc(Nc2ncnc(-n3c(=O)sc4cc(Br)ccc43)n2)cc(OC)c1OC [Compound 426]	> 9.18 µM	> 9.18 µM	> 9.18 µM	> 9.18 µM	> 9.18 µM	> 9.18 µM	> 9.18 µM				
COc1cc(Nc2ncnc(-c3ccc(N4CCOCC4)nc3)n2)cc(OC)c1OC [Compound 434]	> 10.6 µM	> 10.6 µM	> 10.6 µM	> 10.6 µM	> 10.6 µM	> 10.6 µM	> 10.6 µM				
COc1cc(Nc2ncnc(-n3c(NC(=O)c4ccccc4)nc4ccccc43)n2)cc(OC)c1OC [Compound 435]	> 9.04 µM	> 9.04 µM	> 9.04 µM	> 9.04 µM	> 9.04 µM	> 9.04 µM	> 9.04 µM				
COc1cc(Nc2ncnc(-c3ccc(N4CCNCC4)nc3)n2)cc(OC)c1OC [Compound 436]	8.26 to 10.6 µM	> 10.6 µM	> 10.6 µM	> 10.6 µM	8.26 to 10.6 µM	> 10.6 µM	> 10.6 µM				
CC[C@H]1CN(c2ccc(-c3ncnc(Nc4cc(OC)c(OC)c(OC)c4)n3)cn2)CCN1 [Compound 446]	> 9.97 µM	> 9.97 µM	> 9.97 µM	> 9.97 µM	> 9.97 µM	> 9.97 µM	> 9.97 µM				
CCN(CC)CCCNc1ccc(-c2ncnc(Nc3cc(OC)c(OC)c(OC)c3)n2)cn1 [Compound 448]	5.13 to 7.49 µM	> 9.62 µM	> 9.62 µM	0.855 to 5.13 µM	> 9.62 µM	> 9.62 µM	> 9.62 µM				
COc1cc(Nc2ncnc(-c3ccc(N(C)C)nc3)n2)cc(OC)c1OC [Compound 449]	> 11.8 µM	> 11.8 µM	> 11.8 µM	> 11.8 µM	> 11.8 µM	> 11.8 µM	> 11.8 µM				
NC(=O)[C@H](CO)Nc1ncnc(-n2c(=O)[nH]c3ccccc32)n1 [Compound 450]	> 14.3 µM	> 14.3 µM	> 14.3 µM	> 14.3 µM	> 14.3 µM	> 14.3 µM	> 14.3 µM				
NS(=O)(=O)c1ccc(Nc2ncnc(-n3c(=O)[nH]c4ccccc43)n2)cc1 [Compound 451]	1.04 to 6.26 µM	> 11.7 µM	9.13 to 11.7 µM	1.04 to 6.26 µM	> 11.7 µM	> 11.7 µM	> 11.7 µM				
CC(=O)NS(=O)(=O)c1ccc(Nc2ncnc(-n3c(=O)[nH]c4ccccc43)n2)cc1 [Compound 452]	0.94 to 5.64 µM	> 10.6 µM	> 10.6 µM	> 10.6 µM	> 10.6 µM	> 10.6 µM	> 10.6 µM				
O=C(Nc1ccc(Nc2ncnc(-n3c(=O)[nH]c4ccccc43)n2)cc1)O[C@@H]1CCOC1 [Compound 454]	0.923 to 5.54 µM	5.54 to 8.08 µM	> 10.4 µM	0.923 to 5.54 µM	> 10.4 µM	> 10.4 µM	> 10.4 µM				
O=C(Nc1cccc(Nc2ncnc(-n3c(=O)[nH]c4ccccc43)n2)c1)O[C@@H]1CCOC1 [Compound 455]	0.923 to 5.54 µM	> 10.4 µM	> 10.4 µM	> 10.4 µM	5.54 to 8.08 µM	> 10.4 µM	> 10.4 µM				
NS(=O)(=O)c1ccc(CNc2ncnc(-n3c(=O)[nH]c4ccccc43)n2)cc1 [Compound 456]	> 11.3 µM	> 11.3 µM	> 11.3 µM	> 11.3 µM	> 11.3 µM	> 11.3 µM	> 11.3 µM				
O=c1[nH]c2ccccc2n1-c1ncnc(Nc2cccc(Cl)c2)n1 [Compound 457]	1.18 to 7.08 µM	> 13.3 µM	> 13.3 µM	10.3 to 13.3 µM	7.08 to 10.3 µM	> 13.3 µM	> 13.3 µM				
O=c1[nH]c2ccccc2n1-c1ncnc(Nc2ccc(Cl)cc2)n1 [Compound 458]	1.18 to 7.08 µM	7.08 to 10.3 µM	> 13.3 µM	> 13.3 µM	> 13.3 µM	> 13.3 µM	> 13.3 µM				
O=c1[nH]c2ccccc2n1-c1ncnc(Nc2ccc(F)c(Cl)c2)n1 [Compound 459]	1.12 to 6.73 µM	6.73 to 9.81 µM	> 12.6 µM	> 12.6 µM	> 12.6 µM	> 12.6 µM	> 12.6 µM				
C#Cc1cccc(Nc2ncnc(-n3c(=O)[nH]c4ccccc43)n2)c1 [Compound 460]	1.22 to 7.31 µM	7.31 to 10.7 µM	> 13.7 µM	10.7 to 13.7 µM	1.22 to 7.31 µM	> 13.7 µM	> 13.7 µM				
O=c1[nH]c2ccccc2n1-c1ncnc(Nc2cccc(OC(F)(F)F)c2)n1 [Compound 461]	> 11.6 µM	> 11.6 µM	> 11.6 µM	> 11.6 µM	> 11.6 µM	> 11.6 µM	> 11.6 µM				
COc1cc(Nc2ncnc(Nc3nc(C)cs3)n2)cc(OC)c1OC [Compound 468]	1.07 to 6.41 µM	> 12 µM	> 12 µM	> 12 µM	1.07 to 6.41 µM	> 12 µM	> 12 µM				
COc1cc(Nc2ncnc(Nc3nc4ccccc4s3)n2)cc(OC)c1OC [Compound 469]		> 11 µM	> 11 µM		> 11 µM			0.975 to 5.85 µM	> 11 µM	> 11 µM	> 11 µM
COc1ccc(-c2cn[nH]c2Nc2ncnc(Nc3cc(OC)c(OC)c(OC)c3)n2)cc1OC [Compound 470]		> 9.38 µM	> 9.38 µM		7.3 to 9.38 µM			> 9.38 µM	5.01 to 7.3 µM	> 9.38 µM	0.834 to 5.01 µM
